In patent US9029574B2, “Bicyclic compound and use thereof for medical purposes” (Ono Pharmaceutical Co., Ltd., priority 2011, dated 2015):

Columns and labels:
Type in all cases: cell-based
mouse EP1 receptor = biological target: T1, mouse EP1 receptor (Mus musculus, UniProt P35375); assay: Measurement of EP1 agonist activity (intracellular calcium concentration) in EP1-CHO cells; details: for EC50: EP1-CHO cells, intracellular calcium concentration, read-out: Agonist activity on various prostanoid receptors: EC50 value (nmol/L) EP1
T1 construct: expressed in transfected cells; host or cells: CHO cells (EP1-CHO)
T1 sequence (P35375 1-405): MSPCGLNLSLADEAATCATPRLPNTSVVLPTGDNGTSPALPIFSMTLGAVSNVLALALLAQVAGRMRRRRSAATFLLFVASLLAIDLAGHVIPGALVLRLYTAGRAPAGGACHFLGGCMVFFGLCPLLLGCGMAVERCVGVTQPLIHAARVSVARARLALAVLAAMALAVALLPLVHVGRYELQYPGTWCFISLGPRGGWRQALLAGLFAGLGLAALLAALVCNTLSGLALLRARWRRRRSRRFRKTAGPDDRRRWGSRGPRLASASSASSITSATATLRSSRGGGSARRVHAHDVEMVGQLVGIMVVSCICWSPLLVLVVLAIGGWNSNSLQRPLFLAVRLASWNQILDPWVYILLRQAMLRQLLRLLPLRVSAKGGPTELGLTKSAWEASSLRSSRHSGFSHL
From the text: (§1) (1-1) Measurement of Agonist Activity on Various Mouse Prostanoid Receptors
(§2) With using CHO cells (FP-CHO, EP1-CHO and IP-CHO, respectively) in which various mouse prostanoid receptors were forcibly expressed, respectively, agonist activity of test compounds on various prostanoid receptors was studied employing an intracellular calcium concentration regarding FP and EP1, and an intracellular cyclic AMP (hereinafter, abbreviated as cAMP) production amount regarding IP, as an index.
(§3) The test compound was dissolved with dimethyl sulfoxide (DMSO) to prepare a 10 mmol/L solution. Regarding the prepared 10 mmol/L solution, upon use, the 10 mmol/L solution was thawed; step wisely-diluted using DMSO; and diluted with a buffer solution for measurement or a buffer solution for measurement 2, which was subjected to an experiment.
(§4) Cells forcibly expressing various mouse prostanoid receptors were standing-cultured at 37° C. in the presence of 5% CO2 with using an α-MEM medium (Sigma) (for culturing FP-CHO and EP1-CHO) containing inactivated (56° C., 30 minutes) 9.8 vol % dialysed-FBS (Invitrogen) and penicillin-streptomycin-glutamine (GIBCO-BRL), or nucleic acid-containing α-MEM (Sigma) (for culturing IP-CHO) containing inactivated (56° C., 30 minutes) 9.8 vol % dialysed-FBS (Invitrogen) and penicillin-streptomycin glutamine (Invitrogen). Subculturing was performed by the following method.
(§5) After collecting cells into a centrifuging tube, cells were centrifuged at 120 g for 3 minutes at room temperature and the supernatant was removed. Cells were suspended in a suitable amount of a medium, and seeded in a culturing flask.
(§6) (1-2) Measurement of FP and EP1 Agonist Activity (Measurement of Intracellular Calcium Concentration)
(§7) Regarding FP-CHO and EP1-CHO, by the same method as that of subculturing, cells were peeled and suspended. Before two days from measurement, cells were seeded at a density of 1.0×10^4 cells/well into a 96-well UV plate, and standing-cultured at 37° C. in the presence of 5% CO2. […] To each well, 100 μL of a medium containing 5 μmol/L fura 2-AM (DOJINDO), 2.5 mmol/L Probenecid (Sigma), 20 μmol/L indometacin (Sigma) and 10 mmol/L HEPES (Invitrogen) was added, and cells were incubated for about 60 minutes in a CO2 incubator. After completion of the incubation, the medium was removed, and cells were washed with a buffer solution for measurement (Hank's balanced salt solution (Nissui Pharmaceutical Co., Ltd., 9.8 g of the present product was dissolved in 1 L distilled water) containing 0.1 or 1 w/v % bovine serum albumin, 2 μmol/L indometacin, 2.5 mmol/L Probenecid and 10 mmol/L HEPES-NaOH (pH 7.4)) twice. To each well, 120 μL of a buffer solution for measurement was added; and cells were incubated in a CO2 incubator for 30 minutes; and then cells were subjected to an experiment.
(§8) The 96-well UV plate was set in a fluorescent spectral photometer (FDSS-3000, Hamamatsu Photonics K.K.), and an intracellular calcium concentration was measured. To perform a reaction, 30 μL of a buffered solution for measurement containing an agonist at a variety of concentrations was added. Measurement of an intracellular calcium concentration was performed by irradiating cells with excited light of 340 nm and 380 nm alternately, with measuring a fluorescent intensity at 500 nm, and obtaining a fluorescent intensity ratio of 2-wavelength excitation.
(§9) With using measured values obtained from the above method, an EC50 value as an index of agonist activity of the compound of the present invention on mouse FP, mouse EP1 and mouse IP receptors was calculated.

mouse FP receptor = biological target: T2, mouse FP receptor (Mus musculus, UniProt P43117); assay: Measurement of FP agonist activity (intracellular calcium concentration) in FP-CHO cells; details: for EC50: FP-CHO cells, intracellular calcium concentration, read-out: Agonist activity on various prostanoid receptors: EC50 value (nmol/L) FP
T2 construct: expressed in transfected cells; host or cells: CHO cells (FP-CHO)
From the text: as §1, §2, §3, §4, §5, §6, §7, §8, §9

mouse IP receptor = biological target: T3, mouse IP receptor (Mus musculus, UniProt P43252); assay: Measurement of IP agonist activity (cAMP concentration) in IP-CHO cells; details: for EC50: IP-CHO cells, intracellular cAMP production amount, read-out: Agonist activity on various prostanoid receptors: EC50 value (nmol/L) IP
T3 construct: expressed in transfected cells; host or cells: CHO cells (IP-CHO)
From the text: as §1, §2, §3, §4, §5
(1-3) Measurement of IP Agonist Activity (Measurement of cAMP Concentration)
Cells were suspended in a suitable amount of a buffer solution for measurement 1 (MEM medium (Invitrogen) containing 0.1 w/v % bovine serum albumin (Sigma) and 2 μmol/L diclofenac (Sigma)), and centrifuged at room temperature for 3 minutes at 500 g, and the supernatant was removed. Cells were suspended in a buffer solution for measurement 2 (MEM medium (Invitrogen) containing 0.1 w/v % bovine serum albumin (Sigma), 2 μmol/L diclofenac (Sigma) and 1 mmol/L 3-isobutyl-1-methylxanthine), and each 25 μL of the suspension was dispensed at a density of 5.0×10^4 cells/well into a 96-well ½ area plate. A buffer solution for measurement 2 (25 μL) containing an agonist at a variety of concentrations was added to perform a reaction at room temperature for 30 minutes. Measurement of a cAMP concentration was performed with using the cAMP HTRF HiRange kit (CIS bio International). According to the two step protocol of the kit manual, each 25 μL of cAMP-D2 and cryptase diluted with a lysis buffer were added, followed by incubation at room temperature for 1 hour. After incubation for 1 hour, time resolved fluorescence at 620 nm and 660 nm in case of beging excited at 340 nm was measured using Analyst GT (Molecular Device), and a ratio (TRF ratio) was obtained, by which a cAMP concentration was calculated from a calibration line.
as §9

T3 sequence (P43252 whole entry): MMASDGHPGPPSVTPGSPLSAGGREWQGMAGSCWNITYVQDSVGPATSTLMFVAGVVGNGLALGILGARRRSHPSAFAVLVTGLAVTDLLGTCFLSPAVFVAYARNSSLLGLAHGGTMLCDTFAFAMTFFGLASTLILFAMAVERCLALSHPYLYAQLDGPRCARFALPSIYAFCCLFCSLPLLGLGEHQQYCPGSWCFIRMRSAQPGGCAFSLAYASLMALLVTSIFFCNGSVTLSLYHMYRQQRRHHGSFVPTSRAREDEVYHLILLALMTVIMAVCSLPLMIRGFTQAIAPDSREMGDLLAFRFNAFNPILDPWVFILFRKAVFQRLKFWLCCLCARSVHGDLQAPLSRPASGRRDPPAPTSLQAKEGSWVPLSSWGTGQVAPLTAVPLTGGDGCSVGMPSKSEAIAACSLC
T2 sequence (P43117 whole entry): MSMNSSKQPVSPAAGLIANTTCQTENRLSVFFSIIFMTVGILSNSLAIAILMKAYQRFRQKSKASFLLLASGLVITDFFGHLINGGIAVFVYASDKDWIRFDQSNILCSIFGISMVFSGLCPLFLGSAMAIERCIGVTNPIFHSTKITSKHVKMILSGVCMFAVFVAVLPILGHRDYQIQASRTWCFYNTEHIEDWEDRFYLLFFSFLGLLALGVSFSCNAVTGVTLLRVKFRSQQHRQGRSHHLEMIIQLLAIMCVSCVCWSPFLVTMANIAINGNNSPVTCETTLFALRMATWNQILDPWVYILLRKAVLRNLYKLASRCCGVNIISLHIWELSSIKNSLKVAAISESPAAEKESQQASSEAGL

SMILES | EC50 (mouse EP1 receptor) [nmol/L] | EC50 (mouse FP receptor) [nmol/L] | EC50 (mouse IP receptor) [nmol/L] | agonist activity on an EP1 receptor (mouse EP1 receptor; in words, summary of Table 1) | agonist activity on an FP receptor (mouse FP receptor; in words, summary of Table 1) | agonist activity on an IP receptor (mouse IP receptor; in words, summary of Table 1)
O=C(O)CCC[C@H]1CC[C@H]2[C@H](CC(F)(F)[C@@H]2/C=C/C(O)CCc2ccccc2)OC1 (stereo partly drawn) [Example 139 (2), 4-{(3S,5aR,6R,8aS)-7,7-difluoro-6-[(1E)-3-hydroxy-5-phenyl-1-penten-1-yl]octahydro-2H-cyclopenta[b]oxepin-3-yl}butanoic acid] | > 10000 | 39 | > 10000 |  |  | 
O=C(O)CCC[C@H]1CC[C@@H]2[C@@H](C#CC(O)CCc3ccccc3)[C@H](O)C[C@@H]2OC1 (stereo partly drawn) [Example 119, 4-[(3S,5aR,6S,7R,8aS)-7-hydroxy-6-(3-hydroxy-5-phenyl-1-pentyn-1-yl)octahydro-2H-cyclopenta[b]oxepin-3-yl]butanoic acid] | > 10000 | 50.8 | > 10000 |  |  | 
O=C(O)CCC[C@H]1CC[C@@H]2[C@@H](/C=C/C(O)COCc3ccccc3)[C@H](O)C[C@@H]2OC1 (stereo partly drawn) [Example 132 (3), 4-{(3S,5aR,6R,7R,8aS)-6-[(1E)-4-(benzyloxy)-3-hydroxy-1-buten-1-yl]-7-hydroxyoctahydro-2H-cyclopenta[b]oxepin-3-yl}butanoic acid] | > 10000 | 114 | > 10000 |  |  | 
CC(C)=CCCCC(F)(F)/C=C/[C@@H]1[C@H]2CC[C@H](CCCC(=O)O)CO[C@H]2C[C@H]1O [Example 141 (5), 4-{(3S,5aR,6R,7R,8aS)-6-[(1E)-3,3-difluoro-8-methyl-1,7-nonadien-1-yl]-7-hydroxyoctahydro-2H-cyclopenta[b]oxepin-3-yl}butanoic acid] | > 10000 | 39.1 | > 10000 |  |  | 
O=C(O)CCC[C@H]1CC[C@@H]2[C@@H](/C=C/C(F)(F)CCc3ccccc3)[C@H](O)C[C@@H]2OC1 [Example 141 (1), 4-{(3S,5aR,6R,7R,8aS)-6-[(1E)-3,3-difluoro-5-phenyl-1-penten-1-yl]-7-hydroxyoctahydro-2H-cyclopenta[b]oxepin-3-yl}butanoic acid] | > 10000 | 4.6 | > 10000 |  |  | 
O=C(O)CCC[C@H]1CC[C@@H]2[C@@H](/C=C/C(F)COc3ccccc3)[C@H](O)C[C@@H]2OC1 (stereo partly drawn) [Example 122, 4-{(3S,5aR,6R,7R,8aS)-6-[(1E)-3-fluoro-4-phenoxy-1-buten-1-yl]-7-hydroxyoctahydro-2H-cyclopenta[b]oxepin-3-yl}butanoic acid] | 9270 | 9.8 | > 10000 |  |  | 
O=C(O)CCC[C@H]1CC[C@@H]2[C@@H](/C=C/[C@@H](O)COc3ccccc3)[C@H](O)C[C@@H]2O1 [Comparative Compound A, reference compound] | 3 | 1.1 | 710 | has agonist activity | has agonist activity | has agonist activity
O=C(O)CCC[C@H]1CC[C@@H]2[C@@H](CC[C@@H](O)COc3cccc(C(F)(F)F)c3)[C@H](O)C[C@@H]2OC1 [Example 108 (13), 4-[(3S,5aR,6R,7R,8aS)-7-hydroxy-6-{(3R)-3-hydroxy-4-[3-(trifluoromethyl)phenoxy]butyl}octahydro-2H-cyclopenta[b]oxepin-3-yl]butanoic acid] | > 10000 | 9.7 | > 10000 |  |  | 
O=C(O)CCC[C@H]1CC[C@@H]2[C@@H](COC/C=C/c3ccccc3)[C@H](O)C[C@@H]2OC1 [Example 110, 4-[(3S,5aR,6S,7R,8aS)-7-hydroxy-6-({[(2E)-3-phenyl-2-propen-1-yl]oxy}methyl)octahydro-2H-cyclopenta[b]oxepin-3-yl]butanoic acid] | > 10000 | 707 | > 10000 |  |  | 
O=C(O)CCC[C@H]1CC[C@@H]2[C@@H](/C=C/C(O)CCC3CCCC3)[C@H](O)C[C@@H]2OC1 (stereo partly drawn) [Example 132 (7), 4-{(3S,5aR,6R,7R,8aS)-6-[(1E)-5-cyclopentyl-3-hydroxy-1-penten-1-yl]-7-hydroxyoctahydro-2H-cyclopenta[b]oxepin-3-yl}butanoic acid] | > 10000 | 21.1 | > 10000 |  |  | 
